The assay has as its target T1, TMEM16A (Homo sapiens, UniProt Q5XXA6, DEL476-501).
T1 construct: expressed in transfected cells
T1 sequence (Q5XXA6 with tags, fused parts or gaps isoform Q5XXA6-5 DEL539-564): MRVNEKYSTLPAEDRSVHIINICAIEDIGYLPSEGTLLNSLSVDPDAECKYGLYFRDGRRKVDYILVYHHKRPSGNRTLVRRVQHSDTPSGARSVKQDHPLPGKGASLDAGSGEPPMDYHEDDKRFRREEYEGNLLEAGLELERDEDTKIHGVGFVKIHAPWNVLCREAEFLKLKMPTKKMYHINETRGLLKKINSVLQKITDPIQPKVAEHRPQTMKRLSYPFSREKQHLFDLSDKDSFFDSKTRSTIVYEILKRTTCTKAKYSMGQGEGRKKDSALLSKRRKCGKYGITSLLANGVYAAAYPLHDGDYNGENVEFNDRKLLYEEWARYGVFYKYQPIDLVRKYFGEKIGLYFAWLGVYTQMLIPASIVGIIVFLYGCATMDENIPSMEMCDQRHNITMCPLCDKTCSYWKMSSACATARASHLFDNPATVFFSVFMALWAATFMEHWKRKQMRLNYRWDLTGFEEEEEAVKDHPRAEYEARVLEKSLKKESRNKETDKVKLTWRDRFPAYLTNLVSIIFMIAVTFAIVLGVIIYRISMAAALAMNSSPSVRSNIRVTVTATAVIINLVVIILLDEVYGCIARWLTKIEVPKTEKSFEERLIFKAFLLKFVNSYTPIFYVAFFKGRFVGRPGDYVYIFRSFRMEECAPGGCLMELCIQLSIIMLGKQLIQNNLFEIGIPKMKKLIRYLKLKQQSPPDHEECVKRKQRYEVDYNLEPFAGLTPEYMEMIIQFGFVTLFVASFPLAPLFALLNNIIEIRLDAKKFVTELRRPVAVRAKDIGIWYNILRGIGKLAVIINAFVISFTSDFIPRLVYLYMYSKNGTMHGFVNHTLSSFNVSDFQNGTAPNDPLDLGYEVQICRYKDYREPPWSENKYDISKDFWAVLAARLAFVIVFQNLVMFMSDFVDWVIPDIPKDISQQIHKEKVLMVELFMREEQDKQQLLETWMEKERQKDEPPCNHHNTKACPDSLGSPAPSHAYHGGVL
Briefly: Whole-cell patch-clamp of TMEM16A-expressing FRT cells. Type of assay: cell-based. The procedure:
FIG. 4A-D. Patch-clamp analysis of Ca^2+ requirements for TMEM16A activation by Eact and Fact. FIG. 4A. Apical membrane current measured in TMEM16A-expressing FRT cells. ER calcium stores were depleted by CPA (50 μM, 30 min) and 0 CaCl2 in bath. ATP (100 μM), Fact (10 μM), Eact (10 μM) and T16Ainh-A01 (10 μM) were added as indicated. FIG. 4B and FIG. 4C. Whole-cell TMEM16A currents were recorded at a holding potential at 0 mV, and pulsing to voltages between ±80 mV (in steps of 20 mV) in the absence and presence of 3 μM Eact or 10 μM Fact. Free calcium concentration of pipette solutions were clamped at 0 μM, 0.07 μM, 0.15 μM, and 1 μM. Eact (3 μM) or Fact (10 μM) added as indicated. (right) Current/voltage (I/V) plots of mean currents at the middle of each voltage pulse. The Ca^2+ concentration is indicated to the right. FIG. 4D. TMEM16A inhibited by 10 μM T16Ainh-A01 after stimulation by Eact or Fact.
Whole-cell recordings were made at room temperature on TMEM16A-expressing FRT cells and human submandibular A253 cells. The bath solution contained (in mM): 140 NMDG-Cl, 1 CaCl2, 1 MgCl2, 10 glucose and 10 HEPES (pH 7.4). The pipette solution contained (in mM): 130 CsCl, 0.5 EGTA, 1 MgCl2, 1 Tris-ATP, and 10 HEPES (pH 7.2). Different concentrations of free calcium in pipette solution were obtained by replacing 0.5 mM EGTA with 5 mM EGTA, and using different amounts of CaCl2 in the pipette solution. Pipettes were pulled from borosilicate glass and had resistances of 3-5 MΩ after fire polishing. Seal resistances were between 3 and 10 GΩ. After establishing the whole-cell configuration, TMEM16A was activated by 100 μM ATP, TMEM16A activators or different concentrations of free calcium in the pipette solution. Whole-cell currents were elicited by applying hyperpolarizing and depolarizing voltage pulses from a holding potential of 0 mV to potentials between −100 mV and +100 mV in steps of 20 mV. Recordings were made at room temperature using an Axopatch-200B (Axon Instruments). Currents were digitized with a Digidata 1440A converter (Axon Instruments), filtered at […].
The Ca^2+ dependence of TMEM16A activation by Eact and Fact was investigated. […] Whole-cell currents were then recorded by patch-clamp at different cytoplasmic (pipette) [Ca^2+]. […] (FIG. 4B, bottom and right). […] Thus, Eact and Fact activate TMEM16A by different mechanisms: Eact as a largely Ca^2+-independent ‘activator’, and Fact as a ‘potentiator’ of Ca^2+ activation.

`O=C(Nc1ccc(Br)cc1)c1cccc(-n2cnnn2)c1` [Fact, N-(4-bromophenyl)-3-(1H-tetrazol-1-yl)benzamide]: the “maximum TMEM16A Cl^− current at high [Ca^2+]” value (3 μM Eact or 10 μM Fact) is given as “not further increased”. The “whole-cell Cl^− current at submaximal Ca^2+” value (compared to no compound, 10 μM Fact) is reported as “increased Cl^− current”. In addition, the “whole-cell TMEM16A Cl^− current at 0 Ca^2+” value (pipette 0 Ca^2+, 3 μM Eact or 10 μM Fact) was “did not product Cl^− current”.

As for `CCc1c(C)nc(SCC(=O)Nc2nc(-c3ccc(OC)cc3)cs2)[nH]c1=O` [T16Ainh-A01, reference compound], the “block of Cl^− currents produced by Eact or Fact” value (10 μM T16Ainh-A01) is “completely blocked”.

The values above are taken from patent US9790218B2, “Small molecule activators of calcium-activated chloride channels and methods of use” (The Regents of the University of California, priority 2011, dated 2017).
